Legend:
Conditions in all cases: human, ipsc-cm
[1] = (§1) Electrical activity assay on cell lines treated with a given drug. DMSO was used as a vehicle and a control, unblinded dofetilide was used as a control.
[2] = as §1; type: ADME, cell-based
[3] = as §1; remark: listed apart in the source
[4] = as §1; remark: listed apart in the source
[5] = as §1; type: ADME, cell-based; remark: listed apart in the source
[6] = as §1; remark: listed apart in the source
[7] = 0.09507 µM, concentration (um) 0.0950736 uM
[8] = 0.3004 µM, concentration (um) 0.300433 uM
[9] = 0.9494 µM, concentration (um) 0.949367 uM
[10] = 0.003 µM, concentration (um) 0.003 uM
[11] = 0.03 µM, concentration (um) 0.03 uM
[12] = 0.3 µM, concentration (um) 0.3 uM
[13] = 0.03169 µM, concentration (um) 0.0316912 uM
[14] = 0.1001 µM, concentration (um) 0.100144 uM
[15] = 0.3165 µM, concentration (um) 0.316456 uM
[16] = 0.001 µM, concentration (um) 0.001 uM
[17] = 0.01 µM, concentration (um) 0.01 uM
[18] = 0.1 µM, concentration (um) 0.1 uM

CN1CCN(C2=Nc3cc(Cl)ccc3Nc3ccccc32)CC1 [CLOZAPINE]
APDc ([1]; 0.09507 µM): 47.87 | FPD measurement ([1]; 0.09507 µM): 47.87 FPDc | APDc ([1]; 0.3004 µM): 55.24 | FPD measurement ([1]; 0.3004 µM): 55.24 FPDc | APDc ([1]; 0.9494 µM): 62.1 | FPD measurement ([1]; 0.9494 µM): 62.1 FPDc | APDc ([1]; 3 µM): 73.69 | FPD measurement ([1]; 3 µM): 73.69 FPDc | FPD measurement [2, 7]: 5 Values Out Of 5 Were Excluded Due To Quiescence Or 0 Apdc | FPDc [2, 7]: 25.04 | FPD measurement [2, 8]: 5 Values Out Of 5 Were Excluded Due To Quiescence Or 0 Apdc | FPDc [2, 8]: 24.94 | FPD measurement [2, 9]: 5 Values Out Of 5 Were Excluded Due To Quiescence Or 0 Apdc | FPDc [2, 9]: 25.07 | FPD measurement ([2]; 3 µM, concentration (um) 3 uM): 5 Values Out Of 5 Were Excluded Due To Quiescence Or 0 Apdc | FPDc ([2]; 3 µM, concentration (um) 3 uM): 22.78 | FPDc ([3]; 0.09507 µM): 68.88 | FPD measurement ([3]; 0.3004 µM): 5 Values Out Of 5 Were Excluded Due To Quiescence Or 0 Apdc | FPDc ([3]; 0.3004 µM): 59.23 | FPD measurement ([3]; 0.9494 µM): 5 Values Out Of 5 Were Excluded Due To Quiescence Or 0 Apdc | FPDc ([3]; 0.9494 µM): 63.68 | FPDc ([3]; 3 µM): 65.29 | FPD measurement ([4]; 0.09507 µM): 1 Values Out Of 1 Were Excluded Due To Quiescence Or 0 Fpdc | FPDc ([4]; 0.09507 µM): 1 Values Out Of 1 Were Excluded Due To Quiescence Or 0 Fpdc | FPD measurement ([4]; 0.3004 µM): 1 Values Out Of 1 Were Excluded Due To Quiescence Or 0 Fpdc | FPDc ([4]; 0.3004 µM): 1 Values Out Of 1 Were Excluded Due To Quiescence Or 0 Fpdc | FPD measurement ([4]; 0.9494 µM): 1 Values Out Of 1 Were Excluded Due To Quiescence Or 0 Fpdc | FPDc ([4]; 0.9494 µM): 1 Values Out Of 1 Were Excluded Due To Quiescence Or 0 Fpdc | FPD measurement ([4]; 3 µM): 1 Values Out Of 1 Were Excluded Due To Quiescence Or 0 Fpdc | FPDc ([4]; 3 µM): 1 Values Out Of 1 Were Excluded Due To Quiescence Or 0 Fpdc

O=c1[nH]c2ccccc2n1CCCN1CCC(n2c(=O)[nH]c3cc(Cl)ccc32)CC1 [DOMPERIDONE]
APDc ([1]; 0.003 µM): 72.4 | FPD measurement ([1]; 0.003 µM): 72.4 FPDc | APDc ([1]; 0.03 µM): 67 | FPD measurement ([1]; 0.03 µM): 67 FPDc | APDc ([1]; 0.3 µM): 78.3 | FPD measurement ([1]; 0.3 µM): 78.3 FPDc | APDc ([1]; 3 µM): More Than Half The Wells Had A Quiescence Event Or Apdc Readings Of 0 | FPD measurement ([1]; 3 µM): More Than Half The Wells Had A Quiescence Event Or Apdc Readings Of 0 | FPD measurement [5, 10]: 47.3 FPDc | FPDc [5, 10]: 6 Values Out Of 6 Were Excluded Due To Quiescence Or 0 Fpdc | FPD measurement [5, 11]: 85.58 FPDc | FPDc [5, 11]: 6 Values Out Of 6 Were Excluded Due To Quiescence Or 0 Fpdc | FPD measurement [5, 12]: 42.56 FPDc | FPDc [5, 12]: 6 Values Out Of 6 Were Excluded Due To Quiescence Or 0 Fpdc | FPDc ([5]; 3 µM, concentration (um) 3 uM): 6 Values Out Of 6 Were Excluded Due To Quiescence Or 0 Fpdc | FPDc ([3]; 0.003 µM): 73.87 | FPDc ([3]; 0.03 µM): 88.38 | FPDc ([3]; 0.3 µM): More Than Half The Wells Had A Quiescence Event Or Fpdc Readings Of 0 | FPD measurement ([3]; 3 µM): More Than Half The Wells Had A Quiescence Event Or Apdc Readings Of 0 | FPDc ([3]; 3 µM): More Than Half The Wells Had A Quiescence Event Or Fpdc Readings Of 0

O=C(CCCN1CC=C(n2c(=O)[nH]c3ccccc32)CC1)c1ccc(F)cc1 [DROPERIDOL]
APDc ([1]; 0.03169 µM): 57.78 | FPD measurement ([1]; 0.03169 µM): 57.78 FPDc | APDc ([1]; 0.1001 µM): 53.48 | FPD measurement ([1]; 0.1001 µM): 53.48 FPDc | APDc ([1]; 0.3165 µM): 58.08 | FPD measurement ([1]; 0.3165 µM): 58.08 FPDc | APDc ([1]; 1 µM): 67.51 | FPD measurement ([1]; 1 µM): 67.51 FPDc | FPD measurement [5, 13]: 60.21 FPDc | FPDc [5, 13]: 6 Values Out Of 6 Were Excluded Due To Quiescence Or 0 Fpdc | FPD measurement [5, 14]: 132.5 FPDc | FPDc [5, 14]: 6 Values Out Of 6 Were Excluded Due To Quiescence Or 0 Fpdc | FPD measurement [5, 15]: 151.8 FPDc | FPDc [5, 15]: 6 Values Out Of 6 Were Excluded Due To Quiescence Or 0 Fpdc | FPD measurement ([5]; 1 µM, concentration (um) 1 uM): 41.51 FPDc | FPDc ([5]; 1 µM, concentration (um) 1 uM): 6 Values Out Of 6 Were Excluded Due To Quiescence Or 0 Fpdc | FPDc ([3]; 0.03169 µM): 71.23 | FPDc ([3]; 0.1001 µM): 90.23 | FPDc ([3]; 0.3165 µM): 123.3 | FPDc ([3]; 1 µM): More Than Half The Wells Had A Quiescence Event Or Fpdc Readings Of 0 | FPD measurement ([4]; 0.03169 µM): 1 Values Out Of 1 Were Excluded Due To Quiescence Or 0 Fpdc | FPDc ([4]; 0.03169 µM): 1 Values Out Of 1 Were Excluded Due To Quiescence Or 0 Fpdc | FPD measurement ([4]; 0.1001 µM): 1 Values Out Of 1 Were Excluded Due To Quiescence Or 0 Fpdc | FPDc ([4]; 0.1001 µM): 1 Values Out Of 1 Were Excluded Due To Quiescence Or 0 Fpdc | FPD measurement ([4]; 0.3165 µM): 1 Values Out Of 1 Were Excluded Due To Quiescence Or 0 Fpdc | FPDc ([4]; 0.3165 µM): 1 Values Out Of 1 Were Excluded Due To Quiescence Or 0 Fpdc | FPD measurement ([4]; 1 µM): 1 Values Out Of 1 Were Excluded Due To Quiescence Or 0 Fpdc | FPDc ([4]; 1 µM): 1 Values Out Of 1 Were Excluded Due To Quiescence Or 0 Fpdc

COC(=O)C1=C(C)NC(C)=C(C(=O)OC)C1c1ccccc1[N+](=O)[O-] [NIFEDIPINE]
APDc ([1]; 0.001 µM): 59.3 | FPD measurement ([1]; 0.001 µM): 59.3 FPDc | APDc ([1]; 0.01 µM): 57.63 | FPD measurement ([1]; 0.01 µM): 57.63 FPDc | APDc ([1]; 0.1 µM): More Than Half The Wells Had A Quiescence Event Or Apdc Readings Of 0 | FPD measurement ([1]; 0.1 µM): More Than Half The Wells Had A Quiescence Event Or Apdc Readings Of 0 | APDc ([1]; 1 µM): More Than Half The Wells Had A Quiescence Event Or Apdc Readings Of 0 | FPD measurement ([1]; 1 µM): More Than Half The Wells Had A Quiescence Event Or Apdc Readings Of 0 | FPD measurement [2, 16]: 5 Values Out Of 5 Were Excluded Due To Quiescence Or 0 Apdc | FPDc [2, 16]: 21.76 | FPD measurement [2, 17]: 5 Values Out Of 5 Were Excluded Due To Quiescence Or 0 Apdc | FPDc [2, 17]: 17.1 | FPD measurement [2, 18]: More Than Half The Wells Had A Quiescence Event Or Apdc Readings Of 0 | FPDc [2, 18]: More Than Half The Wells Had A Quiescence Event Or Fpdc Readings Of 0 | FPD measurement ([2]; 1 µM, concentration (um) 1 uM): More Than Half The Wells Had A Quiescence Event Or Apdc Readings Of 0 | FPDc ([2]; 1 µM, concentration (um) 1 uM): More Than Half The Wells Had A Quiescence Event Or Fpdc Readings Of 0 | FPDc ([3]; 0.001 µM): 73.26 | FPDc ([3]; 0.01 µM): 70.54 | FPDc ([3]; 0.1 µM): 51.56 | FPDc ([3]; 1 µM): 21.94 | FPD measurement ([6]; 0.001 µM): 50.88 FPDc | FPDc ([6]; 0.001 µM): 50.88 | FPD measurement ([6]; 0.01 µM): 43.95 FPDc | FPDc ([6]; 0.01 µM): 43.95 | FPD measurement ([6]; 0.1 µM): 24.94 FPDc | FPDc ([6]; 0.1 µM): 24.94 | FPD measurement ([6]; 1 µM): 16.23 FPDc | FPDc ([6]; 1 µM): 16.23 | FPD measurement ([4]; 0.001 µM): 1 Values Out Of 1 Were Excluded Due To Quiescence Or 0 Fpdc | FPDc ([4]; 0.001 µM): 1 Values Out Of 1 Were Excluded Due To Quiescence Or 0 Fpdc | FPD measurement ([4]; 0.01 µM): 1 Values Out Of 1 Were Excluded Due To Quiescence Or 0 Fpdc | FPDc ([4]; 0.01 µM): 1 Values Out Of 1 Were Excluded Due To Quiescence Or 0 Fpdc | FPD measurement ([4]; 0.1 µM): 1 Values Out Of 1 Were Excluded Due To Quiescence Or 0 Fpdc | FPDc ([4]; 0.1 µM): 1 Values Out Of 1 Were Excluded Due To Quiescence Or 0 Fpdc | FPD measurement ([4]; 1 µM): 1 Values Out Of 1 Were Excluded Due To Quiescence Or 0 Fpdc | FPDc ([4]; 1 µM): 1 Values Out Of 1 Were Excluded Due To Quiescence Or 0 Fpdc

CC(C)(C)c1ccc(C(O)CCCN2CCC(C(O)(c3ccccc3)c3ccccc3)CC2)cc1 (stereo unspecified) [TERFENADINE]
FPD measurement [2, 16]: 5 Values Out Of 5 Were Excluded Due To Quiescence Or 0 Apdc | FPDc [2, 16]: 20.04 | FPD measurement [2, 17]: 5 Values Out Of 5 Were Excluded Due To Quiescence Or 0 Apdc | FPDc [2, 17]: 19.19 | FPD measurement [2, 18]: 5 Values Out Of 5 Were Excluded Due To Quiescence Or 0 Apdc | FPDc [2, 18]: 20.37 | FPD measurement ([2]; 1 µM, concentration (um) 1 uM): 5 Values Out Of 5 Were Excluded Due To Quiescence Or 0 Apdc | FPDc ([2]; 1 µM, concentration (um) 1 uM): 19.11 | FPD measurement [5, 16]: 48.77 FPDc | FPDc [5, 16]: 6 Values Out Of 6 Were Excluded Due To Quiescence Or 0 Fpdc | FPD measurement [5, 17]: 52.11 FPDc | FPDc [5, 17]: 6 Values Out Of 6 Were Excluded Due To Quiescence Or 0 Fpdc | FPD measurement [5, 18]: 71.18 FPDc | FPDc [5, 18]: 6 Values Out Of 6 Were Excluded Due To Quiescence Or 0 Fpdc | FPDc ([5]; 1 µM, concentration (um) 1 uM): 6 Values Out Of 6 Were Excluded Due To Quiescence Or 0 Fpdc | FPDc ([3]; 0.001 µM): 67.41 | FPDc ([3]; 0.01 µM): 65.79 | FPDc ([3]; 0.1 µM): 66.77 | FPDc ([3]; 1 µM): 63.51 | FPD measurement ([4]; 0.001 µM): 1 Values Out Of 1 Were Excluded Due To Quiescence Or 0 Fpdc | FPDc ([4]; 0.001 µM): 1 Values Out Of 1 Were Excluded Due To Quiescence Or 0 Fpdc | FPD measurement ([4]; 0.01 µM): 1 Values Out Of 1 Were Excluded Due To Quiescence Or 0 Fpdc | FPDc ([4]; 0.01 µM): 1 Values Out Of 1 Were Excluded Due To Quiescence Or 0 Fpdc | FPD measurement ([4]; 0.1 µM): 1 Values Out Of 1 Were Excluded Due To Quiescence Or 0 Fpdc | FPDc ([4]; 0.1 µM): 1 Values Out Of 1 Were Excluded Due To Quiescence Or 0 Fpdc | FPD measurement ([4]; 1 µM): 1 Values Out Of 1 Were Excluded Due To Quiescence Or 0 Fpdc | FPDc ([4]; 1 µM): 1 Values Out Of 1 Were Excluded Due To Quiescence Or 0 Fpdc
